Read-outs that look alike come from different tables or passages of the source.

One data set has as its system photoreceptors. As to conditions: albino rats, cited from earlier work; for protection of photoreceptors from light damage: systemic administration (Wen et al., 1996).
Data set [1] has as its system Müller cells of RPE-free eye rudiments. As to conditions: for upregulation of GFAP induced by RPE removal: brimonidine added to culture media; for glutamine synthetase (GS) immunoreactivity: brimonidine-treated RPE-free eye rudiments. As for the experimental part: (§1) The following studies were performed on Xenopus embryos. Briefly, eye rudiments were removed from stage 33/34 Xenopus embryos. The RPE was peeled from the outer retinal surface and eyes were cultured for 3 days in Niu-Twitty (NT) medium. The same experiment was performed in NT medium containing 0.001% brimonidine. Control conditions included eye rudiments cultured with the RPE and eyes allowed to mature in vivo to an equivalent developmental stage. Retinal morphology was assessed, carefully evaluating PRs and MCs.
(§2) The culture preparation used in these studies has been previously described (Hollyfield, 1974; Lolley, 1977; Stiemke, 1994; Stiemke, 1995; and Jablonski, 1999). The handling of animals was in accordance with the Declaration of Helsinki and The Guiding Principles in the Care and Use of Animals (DHEW Publication, NIH 80-23). Human chorionic gonadotropin (Sigma Chemical Co., St. Louis, Mo.) was to induce adult Xenopus laevis to breed. The external staging system of Nieuwkoop and Faber was used to determine retinal maturity (Nieuwkoop, 1956). Embryos and isolated eyes were maintained under cyclic lighting conditions (12 hour light: 12 hour dark) in all experiments, rudimentary eyes were removed from embryos at state 33/34, just as photoreceptor outer segments are beginning to form (Stiemke, 1994). Eyes were maintained in vitro for three days at 23° C. in Niu-Twitty medium (Jacobson, 1967) after which they were fixed for subsequent analyses.
When appropriate, the overlying RPE was gently peeled away from the neuroepithelium using finely polished forceps, leaving the underlying retina exposed to the culture medium. Eye rudiments without a closely adherent RPE were cultured in Niu-Twitty media alone, Niu-Twitty containing 0.001% brimonidine. Eyes allowed to mature in vitro in the presence of an adherent RPE in Niu-Twitty medium alone were used as controls.
Any eye with an uneven surface or which had many loose cells associated with it was discarded.

For a further data set, the system named is opsin. As to conditions: 0.0001% brimonidine in culture media. The procedure: as §1
as §2, with “Eyes were maintained in vitro for three days at 23° C. in Niu-Twitty medium (Jacobson, 1967) after which they were fixed for subsequent analyses.” left out

The conditions of data set [2]: expected, topical administration, to be verified.
Description: The intraocular concentration is likely to be inversely proportional to the surface area available for absorption. […] Once verified, the dosage of brimonidine in eyedrops will be adjusted accordingly (10:1 dilution, i.e. 0.02%) to mimic more closely the intraocular concentrations that would be reached during human application.
The intraocular concentration is likely to be inversely proportional to the surface area available for absorption. […] Once verified, the dosage of brimonidine in the eyedrops would be adjusted accordingly (predicted to be a 10:1 dilution, i.e., 0.02%) to mimic more closely the intraocular concentrations that would be reached during human application.
For a further data set, the system named is ischemic retinal injury. As to conditions: cited from earlier work.
The conditions of data set [3]: rabbit, cited from earlier work.
For data set [4] the following is noted: primate, 2% solution of brimonidine tartrate, twice daily; cited from earlier work.
Another data set relates to retinal ganglion cells. As to conditions: rat, intraperitoneal administration (Yoles et al 1999); cited from earlier work.
For data set [5] the following is noted: topical administration to the eye, animals and clinical trials; cited from earlier work.
The test system of data set [6] is retinal degeneration (RP). As to conditions: patients with RP, 15,000 I.U. daily (Berson 1993); cited from earlier work.
The subject of data set [7] is mitogen-activated protein kinase (MAPK). As to conditions: systemically administered (Peng et al., 1998); cited from earlier work.
In another data set the test system is cAMP. As to conditions: retina (Osborne 1991); cited from earlier work.
The conditions of data set [8]: topically applied, glaucomatous patients (Lachkar 1998; Carlsson 1999); cited from earlier work.

For `COC(=O)[C@@H]1[C@H]2C[C@H]3c4[nH]c5ccccc5c4CCN3C[C@@H]2CC[C@@H]1O` [yohimbine], the “effect of pretreatment on the protective effect of xylazine and clonidine” value in the data set with photoreceptors (pretreatment with the antagonist (Wen et al., 1996)) is “prevented the protective effect”.

Turning to `Brc1c(NC2=NCCN2)ccc2nccnc12` [brimonidine, 5-bromo-6-(2-imidazolidinylideneamino)-quinoxaline], the n-cadherin immunolocalization patterns result in data set [1] (0.0001% brimonidine, RPE removed, data not shown) is listed as “preserved”. Further, the “upregulation of GFAP induced by RPE removal” value in [1] (RPE removed) is reported as “virtually abolished”; in [1] (RPE removed, listed as Brimonidine) it was “prevented the upregulation of GFAP expression”. In addition, the “glutamine synthetase (GS) immunoreactivity” value in data set [1] is given as “well preserved”; in [1] (listed as Brimonidine), “allows Müller cells to express glutamine synthetase in the absence of the RPE”. Moreover, in the data set on opsin, the “amount of opsin/eye compared to RPE-free eyes cultured without brimonidine” value is reported as “marked increase”. In addition, in data set [2], the “intraocular concentration in mouse eye relative to primate eye” value was “approximately 10 times”. Besides, the “ERG b-wave truncation due to ischemia” value with ischemic retinal injury (retinal ischemia) was “partially prevent this b-wave truncation”. Further, the ischemic retinal injury result in the data set on ischemic retinal injury (topically applied 1 hour before injury (Wheeler et al. 1999)) is recorded as “effective in decreasing ischemic retinal injury”. The “intravitreal concentration reached via topical administration” value is given as 450 nM in [3] (2% solution of brimonidine tartrate, twice daily) and 100 nM in data set [4]. Besides, in data set [3] (topical administration to the other eye), the “concentration reaching the fellow eye via the systemic circulation” value is listed as under 15 nM. Moreover, in the data set with retinal ganglion cells, the “loss of retinal ganglion cells induced by the crush” value is “effective in decreasing loss of retinal ganglion cells”. The “intraocular pressure (IOP)” value in [5] is given as “decrease in intraocular pressure”.

Take `CCCCCCCCCCCCCCCC(=O)OC/C=C(C)/C=C/C=C(C)/C=C/C1=C(C)CCCC1(C)C` [vitamin A palmitate]: in [6], the “progression of retinal degeneration” value was “slowed, but did not prevent, the progression of retinal degeneration”.

As for `Clc1cccc(Cl)c1N=C1NCCN1` [clonidine], the “protection of photoreceptors from light damage” value with photoreceptors is “protect the photoreceptors of albino rats from light damage”. Also, the “MAPK phosphorylation in Müller cells” value in data set [7] was “activate selectively and specifically”. Moreover, the “cAMP levels following stimulation with forskolin and VIP” value with cAMP is reported as “reduce cAMP levels”.

As to brimonidine tartrate, the “blood flow in ophthalmic, central retinal, nasal and temporal ciliary arteries” value in [8] is “did not affect the blood flow”.

Turning to `Cc1cccc(C)c1N=C1NCCCS1` [xylazine], the “protection of photoreceptors from light damage” value in the data set on photoreceptors is “protect the photoreceptors of albino rats from light damage”. The “MAPK phosphorylation in Müller cells” value in data set [7] is “activate selectively and specifically”.

Consider `Brc1c(NC2=NCCN2)ccc2nccnc12` [UK 14304], for which the “cAMP levels following stimulation with forskolin and VIP” value with cAMP is given as “reduce cAMP levels”.

The values above are taken from patent US20010049369A1, “Brimonidine compositions and methods for retinal degeneration” (priority 2000, published 2001).
